Results taken from patent US6350747B1, “3-(anilinomethylene) oxindoles” (Glaxo Wellcome Inc., priority 1999, dated 2002).
Where two headings read alike, the source gives them in different places.

Tests used:
HUVEC cells [1] = assay: HUVEC BrdU incorporation, VEGF stimulation; assay type: cell-based; conditions: Homo sapiens, 20 ng/ml VEGF, 72 hrs, read-out: Inhibition of BrdU incorporation in HUVEC cells, VEGF stimulation, IC50
Excerpt: (§1) An assay to measure this effect involves measurement of the inhibition of bromo-deoxy uridine (BrdU) incorporation (evidence of DNA synthesis) in human umbilical vein endothelial cells (HUVECs).
(§2) HUVEC cells and EGM (Endothelial cell growth medium) were purchased from Clonetics (San Diego, CA). VEGF and bFGF were purchased from Genzyme. M199 medium (Gibco BRL) with BSA (Sigma) was used for cell culture in Type I collagen coated plates (Becton Dickinson). The degree of BrdU incorporation was measured using a commercial colorimetric ELISA assay from Boehringer Mannheim.
(§3) HUVECs were plated at a density of 2500 cells per well in M199 medium containing 5% FBS (Hyclone) in a Type-1 Collagen coated plate. The plate was incubated at 37° C. overnight. The medium was removed by aspiration, and test compounds were added to each well in a volume of 0.1 ml per well in serum-free M199 medium. […] The plate was incubated for 30 min at 37° C. Another 0.1 ml of serum-free M199 medium containing BSA and VEGF (or bFGF) was added to give a final concentration of 0.1% BSA and 20 ng/ml VEGF (0.3 ng/ml bFGF). The plate was incubated at 37° C. for 72 hrs. BrdU was added to each well after the first 48 hrs to give a concentration of 10 micomolar. The colorimetric ELISA assay was performed according to manufacturer's instructions, with detection by absorbance reading at 450 nm.

HUVEC cells [2] = assay: HUVEC BrdU incorporation, bFGF stimulation; assay type: cell-based; conditions: Homo sapiens, 0.3 ng/ml bFGF, 72 hrs, read-out: Inhibition of BrdU incorporation in HUVEC cells, BFGF Stimulation, IC50
Excerpt: as §1, §2, §3

VEGFR-2 = target: T1, VEGFR-2 (Homo sapiens, UniProt P35968); assay: VEGFR-2 substrate phosphorylation assay; assay type: biochemical
T1 construct: The kinase domain of the enzyme was purified to homogeneity from a baculovirus expression system; made in house
Protocol: Substrate phosphorylation assays were carried out as follows:
The kinase domain of the enzyme was purified to homogeneity from a baculovirus expression system. The enzyme was preactivated on ice for 15 min in the presence of 100 μM ATP and 20 mM MgCl2, and stored at −80° C. until needed for assay. The activated enzyme was diluted to 0.4 nM into a 60 μl reaction containing 100 mM HEPES, pH 7.5, 5 μM ATP, 10 mM MgCl2, 5 μM peptide, 0.1 mM DTT, 0.05 mg/ml BSA, and an inhibitor at varying concentrations. The controls were reactions in the presence (negative controls) or absence (positive controls) of 50 mM EDTA. Reactions were incubated for 30 min at room temperature, and then quenched by the addition of EDTA to 60 mM in 210 μl . The quenched samples (190 μl) were transferred to a neutravidin-coated plate (Pierce) and incubated at room temperature for 40 min to allow biotinylated peptide to bind to the neutravidin. The unbound components of the reaction were removed by washing with a plate washer, then 200 μl HRP-PY20 anti-phosphotyrosine antibody conjugate was added to each well. After incubation for 40 min, the plate was washed to remove any unbound anitbody. A HRP substrate, K-blue (Neogen) was added and the reaction was quenched with Red Stop (Neogen) after 20 min. The absorbance of the wells was read at A650 in a plate reader. IC50 values were obtained by fitting raw data to A650=VMAX*(1−[I]/IC50+[I])))+b, where b is background.

Tie-2 = target: T2, Tie-2 (Homo sapiens, UniProt Q02763); assay: Tie-2 substrate phosphorylation assay; assay type: biochemical
T2 construct: The kinase domain of the enzyme was purified to homogeneity from a baculovirus expression system; made in house
Protocol: The peptide substrate used in the Tie-2 assay was biotin-aminohexyl-[sequence]amide. The kinase domain of the enzyme was purified to homogeneity from a baculovirus expression system. The enzyme was diluted to 10 nM into a 60 μl reaction containing 100 mM HEPES, pH 7.5, 500 μM ATP, 10 mM MgCl2, 2 μM peptide, 1 mM DTT, 0.05 mg/ml BSA, and an inhibitor at varying concentrations. The controls were reactions in the presence (negative controls) or absence (positive controls) of 50 mM EDTA. Reactions were incubated for 30 min at room temperature, and then quenched by stopped by 80 μl, of 0.15 M EDTA. […] The neutravidin plates were then washed with water for 5 times. Europium conjugated anti-phosphotyrosine antibody, (EG & G Wallac, #CR04-100) (1 mg/ml) was diluted 1:10,000 in 1%BSA-0.05% Tween 20-TBS, and 150 μl of the diluted antibody was added to each well of the neutravidin plate, so the phosphorylated peptide was bound with the Europium labelled antibody. After another 30-60 min incubation at room temperature, the plates were washed again with water for 5 times. 150 ul of Enhancemant solution was then added to each well, dissociating Eu^3+ from solid phase bound antibodies to form a homogeneous and highly fluorescent Eu-(2-NTA)3(TOPO)2-3 micellar chelate solution.
The kinase activity of all wells was calculated as %S, the percentage of the fluorescent counts vs. positive controls after substraction of negative controls, as in eq.
Plots of compound concentration versus %S were constructed.
%S=%Smax*(1−(X/(K+X)))+Y2 (2)

c-fms = target: T3, c-fms (Homo sapiens, UniProt P07333); assay: c-fms protein kinase assay; assay type: biochemical; conditions: read-out: c-fms kinase inhibition IC50
T3 construct: The c-fms intracellular domain was expressed from a baculovirus expression system, as an amino-terminal GST fusion protein; GST (N); made in house
T3 sequence (P07333 539-972 limits assumed): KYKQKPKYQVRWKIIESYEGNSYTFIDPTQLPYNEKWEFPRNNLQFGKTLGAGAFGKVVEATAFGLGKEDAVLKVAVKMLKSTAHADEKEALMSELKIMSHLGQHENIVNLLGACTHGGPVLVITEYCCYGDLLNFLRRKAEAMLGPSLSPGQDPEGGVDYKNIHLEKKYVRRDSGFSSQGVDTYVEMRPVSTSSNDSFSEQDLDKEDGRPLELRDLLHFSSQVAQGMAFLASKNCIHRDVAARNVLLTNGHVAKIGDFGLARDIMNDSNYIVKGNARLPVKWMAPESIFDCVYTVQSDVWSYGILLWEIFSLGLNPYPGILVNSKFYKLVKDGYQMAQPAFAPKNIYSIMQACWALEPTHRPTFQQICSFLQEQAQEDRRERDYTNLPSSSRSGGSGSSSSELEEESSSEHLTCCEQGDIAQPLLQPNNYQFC
Protocol: c-fms protein kinase assays utilized the peptide substrate, biotin-EAl[…]-NH2, as the phosphoryl group acceptor. The c-fms intracellular domain was expressed from a baculovirus expression system, as an amino-terminal GST fusion protein, and purified to homogeneity using Glutathione agarose from Sigma Chemical Co. Maximum activation of the enzyme was achieved by preactivation at room temperature for 120 min in the presence of 100 μM ATP and 15 mM MgCl2. This enzyme stock was diluted to 150 nM prior to using in the assay. Typically assays were performed in white, opaque, 96-well plates in a 45 ul assay volume including 15 ul 6% DMSO, with or without compounds, 15 ul of the preactivated, diluted enzyme, and 15 ul of a substrate mixture. Reactions contained 50 mM HEPES, pH 7.5, 1.7 μM ATP, 15 mM MgCl2, […] peptide, 2.5 μM DTT, 50 mM NaCl and 0.15 uCi/assay [^32P]ATP. The controls were reactions in the presence (negative controls) or absence (positive controls) of 50 mM EDTA. Reactions were allowed to proceed for 90 min at room temperature. The reaction products were quantified using Scintillation Proximity technolgy. The reactions were quenched by the addition of 200 ul of a solution containing 0.3 mg streptavidin SPA beads from Amersham, 50 mM EDTA, 0.1% TX-100, 50 uM ATP, in PBS, pH7.2 (phosphate buffered solution). Plates were sealed and counted in a Packard Topcount scintillation counter. IC50 values were obtained by fitting raw data to the equation y=Vmax*(1−(x/(k+x))).

CDK2 = target: T4, CDK2 (Homo sapiens, UniProt P24941); assay: CDK2 cyclin dependent protein kinase assay; assay type: biochemical; conditions: read-out: CDK2 kinase inhibition IC50
T4 construct: made in house
Protocol: Cyclin dependent protein kinase assays utilized the peptides Biotin-aminohexyl-[…] and Biotin-aminohexyl-[…]-NH2 as phosphoryl group acceptors. CDK1 and CDK2 were both expressed utilizing a baculovirus expression system and were partially purified to comprise 20-80% of total protein, with no detectable competing reactions present. Typically, assays were performed by incubating either enzyme (0.2-10 nM), with and without inhibitor, one of the two peptide substrates ([…]), [γ-^32P]ATP ([…]), and 10-20 mM Mg^2+ for periods of time generally within the range 10-120 min. Reactions were terminated with 0.2-2 volumes of either 20% acetic acid or 50-100 mM EDTA buffered to pH 7 (substrate consumption<20%). The buffer employed in enzyme assays was either 30 mM HEPES 7.4 containing 0.15 M NaCl and 5% DMSO, the buffer 50 mM MOPS 7.0 containing 0.15 M NaCl and 5% DMSO, or the buffer 100 mM HEPES pH 7.5 containing 0.1 mg/mL BSA and 5% DMSO. Inhibitors were diluted in 100% DMSO prior to addition into the assay. Detection of peptide phosphorylation was accomplished by scintillation counting following either collection of peptide onto phosphocellulose filters (for reactions stopped with acetic acid), collection of peptide in wells of 96 well plates coated with Streptavidin (Pierce) (reactions were stopped with EDTA), or addition of Avidin coated Scintillant impregnated beads (Scintillation Proximity Assays from Amersham, reactions were stopped with EDTA).

[3] = read-out: VEGFR2 kinase inhibition IC50
[4] = read-out: Tie-2 kinase inhibition IC50

T2 sequence (Q02763 824-1096 limits assumed, species assumed): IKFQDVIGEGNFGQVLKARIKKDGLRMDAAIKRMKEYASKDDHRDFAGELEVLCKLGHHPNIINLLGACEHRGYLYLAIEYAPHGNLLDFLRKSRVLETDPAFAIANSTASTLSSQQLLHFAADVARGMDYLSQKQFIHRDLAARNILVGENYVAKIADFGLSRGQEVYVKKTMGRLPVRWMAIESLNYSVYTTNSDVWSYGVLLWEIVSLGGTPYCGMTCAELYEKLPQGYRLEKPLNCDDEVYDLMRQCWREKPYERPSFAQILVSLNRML
T1 sequence (P35968 834-1162 limits assumed, species assumed): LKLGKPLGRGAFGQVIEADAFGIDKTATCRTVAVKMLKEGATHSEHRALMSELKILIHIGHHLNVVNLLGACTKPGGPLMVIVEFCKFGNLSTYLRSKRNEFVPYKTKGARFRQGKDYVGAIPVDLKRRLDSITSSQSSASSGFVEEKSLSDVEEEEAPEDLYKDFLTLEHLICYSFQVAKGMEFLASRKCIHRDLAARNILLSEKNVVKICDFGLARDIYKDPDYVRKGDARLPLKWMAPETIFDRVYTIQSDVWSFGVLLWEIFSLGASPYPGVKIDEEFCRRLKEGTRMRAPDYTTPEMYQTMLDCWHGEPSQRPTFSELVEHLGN

Cc1cc(=O)[nH]n1-c1ccc(N/C=C2\C(=O)Nc3ccc4ncccc4c32)cc1 [Example 66, 1-{(Z)-[4-(5-Methyl-3-oxo-2,3-dihydro-1H-pyrazol-1-yl)anilino]methylidene}-1H-pyrrolo[3,2-f]quinolin-2(3H)-one]
IC50 (HUVEC cells [1]): 600 to 1000 nM
IC50 (HUVEC cells [2]): > 5000 nM
IC50 (VEGFR-2; [3]): 1 to 10 nM
IC50 (Tie-2; [4]): > 100 nM

CCN(CC)CCS(=O)(=O)c1ccc(N/C=C2\C(=O)Nc3ccc4ncccc4c32)cc1 [Example 72, 1-[(Z)-(4-{[2-(Diethylamino)ethyl]sulfonyl}anilino)methylidene]-1H-pyrrolo[3,2-f]quinolin-2(3H)-one]
IC50 (HUVEC cells [1]): 10 to 500 nM
IC50 (HUVEC cells [2]): 10 to 500 nM
IC50 (VEGFR-2): 1 to 10 nM
IC50 (Tie-2): > 100 nM

CCC1(c2ccc(N/C=C3\C(=O)Nc4ccc5ncccc5c43)cc2)CCC(=O)NC1=O (stereo not drawn) [Example 63, 3-Ethyl-3-(4-{(Z)-[(2-oxo-2,3dihydro-1H-pyrrolo[3,2-f]quinolin-1-ylidene)methyl]amino}phenyl)-2,6-piperidinedione]
IC50 (HUVEC cells [1]): 10 to 500 nM
IC50 (HUVEC cells [2]): 600 to 1000 nM
IC50 (VEGFR-2; [3]): 1 to 10 nM
IC50 (Tie-2; [4]): > 100 nM

NC(=O)c1ccc(N/C=C2\C(=O)Nc3ccc4ncsc4c32)cc1 [Example 24, 4-{[(Z)-(7-Oxo-6,7-dihydro-8H-[1,3]thiazolo[5,4-e]indol-8-ylidene)methyl]amino}benzamide]
IC50 (HUVEC cells [1]): 10 to 500 nM
IC50 (c-fms): > 100 nM
IC50 (HUVEC cells [2]): > 5000 nM
IC50 (VEGFR-2): 11 to 50 nM
IC50 (CDK2): 51 to 100 nM
IC50 (Tie-2; [4]): > 100 nM

O=C1Nc2ccc3ncccc3c2/C1=C/Nc1ccc(N2CCOCC2)cc1 [Example 29, 1-{(Z)-[4-(4-Morpholinyl)anilino]methylidene}-1,3-dihydro-2H-pyrrolo[3,2-f]quinolin-2-one]
IC50 (HUVEC cells [1]): 10 to 500 nM
IC50 (c-fms): > 100 nM
IC50 (HUVEC cells [2]): > 5000 nM
IC50 (VEGFR-2; [3]): 11 to 50 nM
IC50 (CDK2): > 100 nM
IC50 (Tie-2; [4]): > 100 nM

CC(=O)N(C)c1ccc(N/C=C2\C(=O)Nc3ccc4ncsc4c32)cc1 [Example 58, N-Methyl-N-(4-{(Z)-[(7-oxo-6,7-dihydro-8H-[1,3]thiazolo[5,4-e]indol-8-ylidene)methyl]amino}phenyl)acetamide]
IC50 (HUVEC cells [1]): 10 to 500 nM
IC50 (HUVEC cells [2]): 1100 to 5000 nM
IC50 (VEGFR-2; [3]): 11 to 50 nM
IC50 (Tie-2; [4]): > 100 nM

O=C1Nc2ccc3ncccc3c2/C1=C/Nc1ccc(Cc2ccncc2)cc1 [Example 30, 1-{(Z)-[4-(4-Pyridinylmethyl)anilino]methylidene}-1,3-dihydro-2H-pyrrolo[3,2-f]quinolin-2-one]
IC50 (HUVEC cells [1]): 10 to 500 nM
IC50 (c-fms): > 100 nM
IC50 (HUVEC cells [2]): 1100 to 5000 nM
IC50 (VEGFR-2; [3]): 11 to 50 nM
IC50 (CDK2): 11 to 50 nM
IC50 (Tie-2; [4]): > 100 nM

O=C1Nc2ccc3ncccc3c2/C1=C/Nc1ccc(CCO)cc1 [Example 32, 1-{(Z)-[4-(2-Hydroxyethyl)anilino]methylidene}-1,3-dihydro-2H-pyrrolo[3,2-f]quinolin-2-one]
IC50 (HUVEC cells [1]): 10 to 500 nM
IC50 (HUVEC cells [2]): 1100 to 5000 nM
IC50 (VEGFR-2; [3]): 11 to 50 nM
IC50 (CDK2): 51 to 100 nM
IC50 (Tie-2; [4]): > 100 nM

CCC1(c2ccc(N/C=C3\C(=O)Nc4ccc5ncsc5c43)cc2)CCC(=O)NC1=O (stereo not drawn) [Example 48, 3-Ethyl-3-(4-{(Z)-[(7-oxo-6,7dihydro-8H-[1,3]thiazolo[5,4-e]indol-8-ylidene)methyl]amino}phenyl)-2,6-piperidinedione]
IC50 (HUVEC cells [1]): 10 to 500 nM
IC50 (c-fms): > 100 nM
IC50 (HUVEC cells [2]): 600 to 1000 nM
IC50 (VEGFR-2; [3]): 1 to 10 nM
IC50 (Tie-2; [4]): > 100 nM

Cc1cc(=O)[nH]n1-c1ccc(N/C=C2\C(=O)Nc3ccc4ncsc4c32)cc1 [Example 55, 8-{(Z)-[4-(5-Methyl-3-oxo-2,3-dihydro-1H-pyrazol-1-yl)anilino]methylidene}-6H-[1,3]thiazolo[5,4-e]indol-7-one]
IC50 (HUVEC cells [1]): 1100 to 5000 nM
IC50 (c-fms): > 100 nM
IC50 (HUVEC cells [2]): > 5000 nM
IC50 (VEGFR-2; [3]): 1 to 10 nM
IC50 (CDK2): 11 to 50 nM
IC50 (Tie-2; [4]): > 100 nM

CCN(CC)CCS(=O)(=O)c1ccc(N/C=C2\C(=O)Nc3ccc4ncsc4c32)cc1 [Example 71, 8-[(Z)-(4-{[2-(Diethylamino)ethyl]sulfonyl}anilino)methylidene]-6H-[1,3]thiazolo[5,4-e]indol-7-one]
IC50 (HUVEC cells [1]): 10 to 500 nM
IC50 (HUVEC cells [2]): 10 to 500 nM
IC50 (VEGFR-2; [3]): 11 to 50 nM
IC50 (Tie-2; [4]): > 100 nM
